Results from patent US20080248511A1, “METHODS TO QUENCH LIGHT FROM OPTICAL REACTIONS” (priority 2007, published 2008).
Where two headings read alike, the source gives them in different places.

Tests used:
[1] = target: T1, Renilla luciferase (Renilla reniformis, UniProt P27652); test: biochemical; assay type: biochemical; details: for remaining activity at 0.5 %: 0.5% detergent in Renilla Luciferase Assay Reagent, read-out: Retained Renilla Luciferase Luminescence (%); for Selectivity Value: retained firefly / retained Renilla, 0.5% detergent
T1 sequence (P27652 1-311): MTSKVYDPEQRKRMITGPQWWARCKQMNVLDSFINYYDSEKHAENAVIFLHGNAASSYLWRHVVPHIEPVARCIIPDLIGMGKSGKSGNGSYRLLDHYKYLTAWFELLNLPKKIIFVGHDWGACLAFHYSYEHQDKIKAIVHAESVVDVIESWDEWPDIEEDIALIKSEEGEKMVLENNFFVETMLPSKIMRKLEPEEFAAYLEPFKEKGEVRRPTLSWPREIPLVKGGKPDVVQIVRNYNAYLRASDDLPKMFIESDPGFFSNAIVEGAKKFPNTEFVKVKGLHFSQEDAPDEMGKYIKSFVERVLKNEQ
Method: (§1) The retained luminescence for each luciferase was calculated by dividing the luminescence in the presence of the detergent by the luminescence in the absence of the test detergent. The selectivity value for each of the test detergents was determined by dividing the retained firefly luciferase luminescence by the retained Renilla luciferase luminescence.
(§2) A set of detergents (Table 2; Sigma-Aldrich) was added at 0.5% (from a 5% or 10% stock solution) to either Luciferase Assay Reagent (Promega) or Renilla Luciferase Assay Reagent (Promega) and allowed to equilibrate at room temperature.
(§3) The firefly luciferase and Renilla luciferase enzymes were diluted as follows. Firefly luciferase was diluted to 14 ng/ml in Phosphate Buffered Saline (PBS) containing 0.1% of the protein carrier Prionex® (Pentapharm). Renilla luciferase was diluted to 10 ng/ml in 1× Renilla Luciferase Lysis Buffer (Promega) containing 0.1% Prionex®. The Renilla Luciferase Lysis Buffer […] detergent micelles when using the Renilla Luciferase Assay Reagent. In the absence of other detergents, this prevents sequestering of coelenterazine which inhibits Renilla luciferase-mediated luminescence.
(§4) The luciferase reactions were initiated by adding 40 μl of either the firefly or Renilla luciferase enzyme solution to 200 μl of the appropriate reagent solution (firefly luciferase enzyme solution+firefly luciferase reagent solution or Renilla luciferase enzyme solution+Renilla luciferase reagent solution, respectively). The reactions were performed in an opaque white, 96-well plate and luminescence was measured for 0.5 seconds per well using a Turner BioSystems Veritas™ Microplate luminometer. The retained firefly luciferase and Renilla luciferase luminescence, as well as the selectivity values for each detergent, were calculated (Table 2).

[2] = target: T1, Renilla luciferase; test: Detergent titration with Tergitol NP-9, digitonin or no lysing agent, Renilla luciferase (Example 4); assay type: biochemical; details: for remaining activity at 0.0005 % / remaining activity at 0.005 % / remaining activity at 0.05 %: read-out: Relative Renilla Luc Intensity
Method: Renilla luciferase-mediated luminescence was measured from samples containing 9.6 mM phosphate buffer pH 6.8, 2.7 mM KCl, 137 mM NaCl (in PBS), 0.1% gelatin, 75 nM coelentrazine (Promega) and 10.2 ng/ml Renilla luciferase. Reactions contained either no lysing agent, 0.5% Tergitol NP-9 or 20 μg/ml digitonin. The detergents to be tested were titrated to 0.05%, 0.005% or 0.0005% in the reactions prior to the addition of the Renilla luciferase. Renilla luciferase-mediated luminescence was measured as described herein.

[3] = target: T2, firefly luciferase (Photinus pyralis, UniProt P08659); test: Detergent titration with Tergitol NP-9, digitonin or no lysing agent, firefly luciferase (Example 4); assay type: biochemical; details: read-out: Relative Firefly Luc Intensity; for remaining activity at 0.0005 %: 0.0005% detergent; for remaining activity at 0.005 %: 0.0050% detergent; for remaining activity at 0.05 %: 0.0500% detergent
T2 sequence (P08659 whole entry): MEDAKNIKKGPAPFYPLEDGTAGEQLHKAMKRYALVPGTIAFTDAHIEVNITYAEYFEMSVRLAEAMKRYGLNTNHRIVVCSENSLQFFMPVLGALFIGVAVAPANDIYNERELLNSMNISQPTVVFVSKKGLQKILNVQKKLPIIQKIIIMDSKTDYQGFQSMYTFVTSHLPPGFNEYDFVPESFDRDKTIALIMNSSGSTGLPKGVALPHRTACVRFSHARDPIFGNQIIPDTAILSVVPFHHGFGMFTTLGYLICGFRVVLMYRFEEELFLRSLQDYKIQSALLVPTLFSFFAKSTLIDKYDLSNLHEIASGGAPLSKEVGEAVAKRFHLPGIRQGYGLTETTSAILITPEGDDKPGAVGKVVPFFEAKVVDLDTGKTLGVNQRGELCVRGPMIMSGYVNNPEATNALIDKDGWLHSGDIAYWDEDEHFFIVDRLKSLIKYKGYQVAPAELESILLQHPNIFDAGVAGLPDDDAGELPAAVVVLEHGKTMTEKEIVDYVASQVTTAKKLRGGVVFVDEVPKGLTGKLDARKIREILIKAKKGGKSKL
Method: For measurement of firefly luciferase-mediated luminescence, a solution containing 110 mM HEPES pH 7.5, 8 mM MgSO4, 0.05% gelatin, 7.35 ng/ml firefly luciferase (QuantiLum® Luciferase; Promega) and the content of the Steady-Glo Luciferase Substrate (Promega) at the equivalent of 1×, As in the Renilla luciferase reactions, reactions contained either no lysing agent, 0.5% Tergitol NP-9 or 20 μg/ml digitonin. The same detergents were titrated as described above and firefly luciferase-mediated luminescence was measured.

[4] = target: T2, firefly luciferase; test: biochemical; details: 0.5% detergent in Luciferase Assay Reagent; read-out: Retained Firefly Luciferase Luminescence (%)
Method: as §1, §2, §3, §4

[5] = target: T2, firefly luciferase; test: Detergent screen with Tergitol NP-9, firefly luciferase (Example 3); assay type: biochemical; details: 0.06% quencher in reagent solution; 0.5% Tergitol NP-9
Method: (§5) Unless otherwise specified, materials were obtained from Sigma-Aldrich.
(§6) The firefly luciferase and Renilla luciferase enzymes were diluted as follows. Firefly luciferase was diluted to 14 ng/ml in Delbecco's Minimal Essential (DMEM) medium (Gibco/Invitrogen) containing 0.1% Prionex®. Renilla luciferase was diluted to 10 ng/ml in DMEM medium containing 0.1% Prionex®.
(§7) The luciferase reactions were initiated by adding 50 μl of the firefly luciferase or Renilla luciferase enzyme solution to 50 μl of reagent solution. The reactions were performed as described above. The retained firefly luciferase and Renilla luciferase luminescence as well as the selectivity values for each quencher were calculated (Table 3). The values listed are based on 0.06% quencher in the reagent solution.

[6] = target: T1, Renilla luciferase; test: Detergent screen with Tergitol NP-9, Renilla luciferase (Example 3); assay type: biochemical; details: 0.5% Tergitol NP-9; for Retained Renilla Luminescence (%): 0.06% quencher in reagent solution; for Selectivity Value: retained firefly / retained Renilla, 0.06% quencher
Method: as §5, §6, §7

[7] = 0.0500% (w:v) detergent, Terg (0.5% Tergitol NP-9)
[8] = 0.0500% detergent, Dig (20 μg/ml digitonin)
[9] = 0.0500% detergent, Water (no lysing agent)

Structure (SMILES) | remaining activity at 0.5 % [1] | Selective Inhibition (Ff Luc Inh/Ren Luc Inh) ([2]; 0.0005% detergent, Dig) | remaining activity at 0.0005 % ([2]; 0.0005% detergent, Dig) | Selective Inhibition (Ff Luc Inh/Ren Luc Inh) ([2]; 0.0005% detergent, Terg) | remaining activity at 0.0005 % ([2]; 0.0005% detergent, Terg) | Selective Inhibition (Ff Luc Inh/Ren Luc Inh) ([2]; 0.0005% detergent, Water) | remaining activity at 0.0005 % ([2]; 0.0005% detergent, Water) | Selective Inhibition (Ff Luc Inh/Ren Luc Inh) ([2]; 0.0050% detergent, Dig) | remaining activity at 0.005 % ([2]; 0.0050% detergent, Dig) | Selective Inhibition (Ff Luc Inh/Ren Luc Inh) ([2]; 0.0050% detergent, Terg) | remaining activity at 0.005 % ([2]; 0.0050% detergent, Terg) | Selective Inhibition (Ff Luc Inh/Ren Luc Inh) ([2]; 0.0050% detergent, Water) | remaining activity at 0.005 % ([2]; 0.0050% detergent, Water) | remaining activity at 0.05 % [2, 7] | Selective Inhibition (Ff Luc Inh/Ren Luc Inh) ([2]; 0.0500% detergent, Dig) | remaining activity at 0.05 % [2, 8] | Selective Inhibition (Ff Luc Inh/Ren Luc Inh) ([2]; 0.0500% detergent, Terg) | Selective Inhibition (Ff Luc Inh/Ren Luc Inh) ([2]; 0.0500% detergent, Water) | remaining activity at 0.05 % [2, 9] | remaining activity at 0.0005 % ([3]; Dig) | other results
CCCCCCCCCCCCCC[N+](C)(C)Cc1ccccc1.[Br-] [Benzyldimethyltetradecylammonium bromide] | 0.13% | 11.0 | 14% | 1.0 | 96% | 10.2 | 12% | 5067 | 0.03% | 1.3 | 70% | 7068 | 0.01% | 5% | 60 | 0.02% | 10 | 451 | 0.02% | 155% | Selectivity Value [1]: 1.6; remaining activity at 0.0005 % ([3]; Terg): 98%; remaining activity at 0.0005 % ([3]; Water): 126%; remaining activity at 0.005 % ([3]; Dig): 128%; remaining activity at 0.005 % ([3]; Terg): 93%; remaining activity at 0.005 % ([3]; Water): 106%; remaining activity at 0.05 % ([3]; Dig (20 μg/ml digitonin)): 1.4%; remaining activity at 0.05 % ([3]; Terg (0.5% Tergitol NP-9)): 45%; remaining activity at 0.05 % ([3]; Water (no lysing agent)): 10%; remaining activity at 0.5 % [4]: 0.21%
C[N+](C)(Cc1ccccc1)C1CCCCC1.[Br-] [N-benzyl-N,N-dimethylcyclohexanaminium bromide] |  |  |  |  |  |  |  |  |  |  |  |  |  |  |  |  |  |  |  |  | Retained Firefly Luminescence (%) [5]: 90%; Retained Renilla Luminescence (%) [6]: 76%; Selectivity Value [6]: 1.2
CCCCC[N+](CCCCC)(CCCCC)CCCCC.[Br-] [Tetrapentylammonium bromide] | 37% | 1.0 | 99% | 1.0 | 96% | 1.0 | 98% | 1.2 | 87% | 1.2 | 81% | 1.2 | 83% | 38% | 2.9 | 40% | 2.5 | 3.0 | 37% | 100% | Selectivity Value [1]: 2.2; remaining activity at 0.0005 % ([3]; Terg): 97%; remaining activity at 0.0005 % ([3]; Water): 98%; remaining activity at 0.005 % ([3]; Dig): 104%; remaining activity at 0.005 % ([3]; Terg): 96%; remaining activity at 0.005 % ([3]; Water): 101%; remaining activity at 0.05 % ([3]; Dig (20 μg/ml digitonin)): 117%; remaining activity at 0.05 % ([3]; Terg (0.5% Tergitol NP-9)): 95%; remaining activity at 0.05 % ([3]; Water (no lysing agent)): 110%; remaining activity at 0.5 % [4]: 80.9%
CCCCCCCCCCCC[N+](C)(C)C1c2ccccc2-c2ccccc21.[Br-] [N-dodecyl-N,N-dimethyl-9H-fluoren-9-aminium bromide] |  |  |  |  |  |  |  |  |  |  |  |  |  |  |  |  |  |  |  |  | Retained Firefly Luminescence (%) [5]: 37%; Retained Renilla Luminescence (%) [6]: 1%; Selectivity Value [6]: 37
CCCCCCCCCCCC[N+](C)(C)C.[Br-] [Dodecyltrimethylammonium bromide] | 1.74% | 1.1 | 96% | 1.0 | 98% | 1.1 | 95% | 2.3 | 55% | 1.2 | 76% | 2.5 | 51% | 9% | 98 | 2% | 8 | 110 | 2% | 103% | Selectivity Value [1]: 24.2; remaining activity at 0.0005 % ([3]; Terg): 96%; remaining activity at 0.0005 % ([3]; Water): 107%; remaining activity at 0.005 % ([3]; Dig): 128%; remaining activity at 0.005 % ([3]; Terg): 93%; remaining activity at 0.005 % ([3]; Water): 128%; remaining activity at 0.05 % ([3]; Dig (20 μg/ml digitonin)): 184%; remaining activity at 0.05 % ([3]; Terg (0.5% Tergitol NP-9)): 71%; remaining activity at 0.05 % ([3]; Water (no lysing agent)): 197%; remaining activity at 0.5 % [4]: 42.1%
Cc1cc(C)c(C[N+](C)(C)C)cc1C.[Br-] [Trimethyl(2,4,5-Trimethylbenzyl)ammonium bromide] | 1.87% | 1.8 | 63% | 1.0 | 92% | 1.9 | 62% | 18 | 3% | 1.2 | 67% | 17 | 3% | 4% | 47 | 0.03% | 2.9 | 50 | 0.03% | 116% | remaining activity at 0.0005 % ([3]; Terg): 95%; remaining activity at 0.0005 % ([3]; Water): 116%; remaining activity at 0.005 % ([3]; Dig): 52%; remaining activity at 0.005 % ([3]; Terg): 83%; remaining activity at 0.005 % ([3]; Water): 54%; remaining activity at 0.05 % ([3]; Dig (20 μg/ml digitonin)): 1%; remaining activity at 0.05 % ([3]; Terg (0.5% Tergitol NP-9)): 12%; remaining activity at 0.05 % ([3]; Water (no lysing agent)): 1%; remaining activity at 0.5 % [4]: 0.06%
